{"source": "patent US6225100A", "about": "“Arylsulfotransferase” (DCV, Inc., priority 1999, dated 2001)", "key": {"[1]": {"system": "AST from Clostridium innocuum strain 554WT", "assay": "AST assay, sulfate acceptors (phenolic compounds, tyrosylpeptides) with p-nitrophenylsulfate as sulfate donor", "type": "biochemical", "conditions": "for Yield (%) of sulfated tyrosylpeptide: tyrosylpeptides as sulfate acceptors"}, "[2]": {"system": "Eubacterium nodatum arylsulfotransferase", "assay": "Sulfation of CCK-8 by Eubacterium nodatum enzyme", "type": "biochemical", "conditions": "under conditions similar to the prior art"}, "[3]": {"system": "bacterial arylsulfotransferase", "conditions": "prior bacterial arylsulfotransferase; Kobashi et al., 1987; cited from earlier work"}, "[4]": {"system": "AST of Clostridium innocuum 554 ATCC 55803 (Strain 554WT)", "assay": "Apparent Km from double reciprocal plots", "type": "biochemical", "description": "(§1) At each stage of purification, the AST activity was assayed by incubating the AST with 0.1 M Tris (pH 8.0), 5.0 mM p-nitrophenylsulfate (as aryl sulfate donor) and 2.5 mM tyramine (as sulfate acceptor). The reaction was incubated at 37° C. and terminated by addition of 1 N NaOH. The amount of p-nitrophenol formed during the reaction was determined by an absorbance reading at 405 nm. One unit of enzyme is equal to 1 mmol of p-nitrophenol formed per minute per milligram protein. Other aryl sulfate donors and phenolic acceptors were used at similar concentrations. Peptide acceptors were typically used in the 250-500 mM range. Formation of sulfated phenols and peptides was also quantitated via HPLC, using a 30% acetonitrile/70% water mobile phase. A UV detector was used to monitor peptides at 280 nm. Other wavelengths were used with various sulfated phenolic products and substrates as appropriate.\nIn this AST assay, various concentrations of p-nitrophenylsulfate (as a sulfate donor) and of tyramine (as a sulfate acceptor) were plotted against the corresponding enzyme reaction rate in a double reciprocal plots (FIG. 4). AST activity was determined as described previously."}, "[5]": {"system": "AST of Clostridium innocuum 554 ATCC 55803 (Strain 554WT)", "assay": "AST assay, sulfate donor substrate specificity with tyramine as sulfate acceptor", "type": "biochemical", "conditions": "for Activity (%) as sulfate donor: relative to p-nitrophenylsulfate designated as 100% activity, tyramine as sulfate acceptor; for specific activity as donor substrate: normalized to p-acetylphenylsulfate as donor baseline at 100% activity", "description": "as §1\nThe AST assay was performed as described in Example 2 using each of the sulfate donors listed in Table 4, with tyramine as the sulfate acceptor in each case. […] Activity is shown as a percentage relative to the activity obtained with p-nitrophenylsulfate, which is designated as 100% activity."}, "[6]": {"system": "Clostridium innocuum AST", "assay": "Effectors of arylsulfotransferase activity", "type": "biochemical", "conditions": "no effect / inhibitory / stimulatory", "text": "The above-described physical and biochemical properties of a Clostridium innocuum AST of the present invention are summarized in Table 3."}, "[7]": {"system": "Eubacterium A-44 arylsulfotransferase", "conditions": "p-acetylphenylsulfate as donor baseline at 100% activity; Kobashi et al., 1987; cited from earlier work"}, "[8]": {"conditions": "p-nitrophenylsulfate as sulfate donor"}, "[9]": {"conditions": "phenolic compounds, p-nitrophenylsulfate as sulfate donor, tyramine 100"}}, "note": "Structures can show the parent of a compound that is named as a salt. Where two headings read alike, the source gives them in different places. Peptide text beside a SMILES is read from it."}
{"compound": "CSCC[C@H](NC(=O)[C@H](Cc1ccc(O)cc1)NC(=O)[C@@H](N)CC(=O)O)C(=O)NCC(=O)N[C@@H](Cc1c[nH]c2ccccc12)C(=O)N[C@@H](CCSC)C(=O)N[C@@H](CC(=O)O)C(=O)N[C@@H](Cc1ccccc1)C(N)=O", "note": "[cholecystokinin8, cholecystokinin-8]", "values": [{"measurement": "yield of sulfation of CCK-8", "setting": "[1]; Clostridium arylsulfotransferase, under conditions similar to the prior art", "value": "≥ 60", "unit": "%"}, {"measurement": "Yield (%) of sulfated tyrosylpeptide", "setting": "[1]; [8]", "value": 35.4, "unit": "%"}, {"measurement": "yield of sulfation of CCK-8", "setting": "[2]", "value": "≥ 45", "unit": "%"}, {"measurement": "highest reported yield of sulfated CCK-8", "setting": "[3]", "value": "~31.3", "unit": "%"}]}
{"compound": "CC(C)C[C@H](NC(=O)[C@H](Cc1ccc(O)cc1)NC(=O)[C@@H](N)CCCNC(=N)N)C(=O)N1CCC[C@H]1C(=O)N[C@H](C(=O)O)[C@@H](C)O", "note": "[proctolin] (H-RYLPT-OH)", "values": [{"measurement": "Yield (%) of sulfated tyrosylpeptide", "setting": "[1]; [8]", "value": 19.8, "unit": "%"}]}
{"compound": "NCCc1ccc(O)cc1", "note": "[tyramine, 4-hydroxyphenethylamine]", "values": [{"measurement": "Activity (%) as sulfate acceptor", "setting": "[1]; [9]", "value": 100, "unit": "%"}, {"measurement": "Km", "setting": "[4]", "value": 1630, "unit": "µM"}]}
{"compound": "Cc1cc(=O)oc2cc(OS(=O)(=O)O)ccc12", "note": "[4-methylumbelliferyl sulfate]", "values": [{"measurement": "Activity (%) as sulfate donor", "setting": "[5]", "value": 46, "unit": "%"}]}
{"compound": "NC(=O)CC[C@@H]1NC(=O)[C@H](Cc2ccccc2)NC(=O)[C@H](Cc2ccc(O)cc2)NC(=O)[C@@H](N)CSSC[C@@H](C(=O)N2CCC[C@H]2C(=O)N[C@@H](CCCN=C(N)N)C(=O)NCC(N)=O)NC(=O)[C@H](CC(N)=O)NC1=O", "note": "[arg8 vasopressin]", "values": [{"measurement": "Yield (%) of sulfated tyrosylpeptide", "setting": "[1]; [8]", "value": 35.8, "unit": "%"}]}
{"compound": "Oc1ccccc1O", "note": "[catechol]", "values": [{"measurement": "Activity (%) as sulfate acceptor", "setting": "[1]", "value": 208}]}
{"compound": "O=[N+]([O-])c1ccc(O)c(OS(=O)(=O)O)c1", "note": "[p-nitrocatechol sulfate]", "values": [{"measurement": "Activity (%) as sulfate donor", "setting": "[5]", "value": 196, "unit": "%"}]}
{"compound": "COC(=O)[C@@H](N)Cc1ccc(O)cc1", "note": "[tyrosine methyl ester]", "values": [{"measurement": "Activity (%) as sulfate acceptor", "setting": "[1]; [9]", "value": 59, "unit": "%"}]}
{"compound": "O=C(O)CN(CCN(CC(=O)O)CC(=O)O)CC(=O)O", "note": "[EDTA]", "values": [{"measurement": "Effectors: effect on enzyme activity", "setting": "[6]", "value": "no effect"}]}
{"compound": "CSCC[C@H](NC(=O)[C@H](Cc1c[nH]c2ccccc12)NC(=O)CNC(=O)[C@@H](NC(=O)[C@H](Cc1ccc(O)cc1)NC(=O)[C@H](CC(=O)O)NC(=O)[C@H](CCC(N)=O)NC(=O)[C@@H]1CCC(=O)N1)[C@@H](C)O)C(=O)N[C@@H](CC(=O)O)C(=O)N[C@@H](Cc1ccccc1)C(N)=O", "note": "(HELM PEPTIDE1{[Glp].Q.D.Y.T.G.W.M.D.F.[am]}$$$$V2.0)", "values": [{"measurement": "Yield (%) of sulfated tyrosylpeptide", "setting": "[1]; [8]", "value": 4.8, "unit": "%"}]}
{"compound": "CSCC[C@H](NC(=O)[C@H](CC(C)C)NC(=O)CNC(=O)[C@H](Cc1ccc(O)cc1)NC(=O)[C@H](Cc1ccccc1)NC(=O)[C@H](CCCCN)NC(=O)[C@H](CC(N)=O)NC(=O)[C@@H]1CCCN1C(=O)[C@H](CC(=O)O)NC(=O)[C@H](C)NC(=O)[C@@H]1CCC(=O)N1)C(N)=O", "note": "[physalaemin] (HELM PEPTIDE1{[Glp].A.D.P.N.K.F.Y.G.L.M.[am]}$$$$V2.0)", "values": [{"measurement": "Yield (%) of sulfated tyrosylpeptide", "setting": "[1]; [8]", "value": 10.5, "unit": "%"}]}
{"compound": "C[C@]12CC[C@@H]3c4ccc(OS(=O)(=O)O)cc4CC[C@H]3[C@@H]1CCC2=O", "note": "[estrone sulfate]", "values": [{"measurement": "specific activity as donor substrate", "setting": "[5]", "value": "about 17%"}, {"measurement": "Activity (%) as sulfate donor", "setting": "[5]", "value": 22, "unit": "%"}, {"measurement": "specific activity as donor substrate", "setting": "[7]", "value": "about 3.4%"}]}
{"compound": "Oc1ccccc1", "note": "[phenol]", "values": [{"measurement": "Activity (%) as sulfate acceptor", "setting": "[1]", "value": 194}]}
{"compound": "Cc1cc(=O)oc2cc(O)ccc12", "note": "[4-methylumbelliferone]", "values": [{"measurement": "Activity (%) as sulfate acceptor", "setting": "[1]; [9]", "value": 86, "unit": "%"}]}
{"compound": "Oc1cc(O)c2c(c1)OC(c1ccc(O)c(O)c1)C(O)C2", "note": "(stereo not shown) [catechin]", "values": [{"measurement": "Activity (%) as sulfate acceptor", "setting": "[1]", "value": 150}]}
{"compound": "N=C(N)NCCC[C@H](NC(=O)[C@@H](N)Cc1ccc(O)cc1)C(=O)O", "note": "[kyotorphin]", "values": [{"measurement": "Yield (%) of sulfated tyrosylpeptide", "setting": "[1]; [8]", "value": 16.8, "unit": "%"}]}
{"compound": "N[C@@H](Cc1ccc(O)cc1)C(=O)O", "note": "[tyrosine]", "values": [{"measurement": "Activity (%) as sulfate acceptor", "setting": "[1]", "value": 13}]}
{"compound": "O=S(=O)(O)Oc1c[nH]c2ccccc12", "note": "[indoxyl sulfate]", "values": [{"measurement": "specific activity as donor substrate", "setting": "[5]", "value": "about 27%"}, {"measurement": "Activity (%) as sulfate donor", "setting": "[5]", "value": 35, "unit": "%"}, {"measurement": "specific activity as donor substrate", "setting": "[7]", "value": "about 2.2%"}]}
{"compound": "CC[C@H](C)[C@H](NC(=O)[C@H](Cc1ccc(O)cc1)NC(=O)[C@@H](NC(=O)[C@H](CCCNC(=N)N)NC(=O)[C@@H](N)CC(=O)O)C(C)C)C(=O)N[C@@H](Cc1cnc[nH]1)C(=O)N1CCC[C@H]1C(=O)N[C@@H](Cc1ccccc1)C(=O)N[C@@H](Cc1cnc[nH]1)C(=O)N[C@@H](CC(C)C)C(=O)O", "note": "[angiotensin I] (H-DRVYIHPFHL-OH)", "values": [{"measurement": "Yield (%) of sulfated tyrosylpeptide", "setting": "[1]; [8]", "value": 8.8, "unit": "%"}]}
{"compound": "phenolphthalein sulfate", "values": [{"measurement": "Activity (%) as sulfate donor", "setting": "[5]", "value": 12, "unit": "%"}]}
{"compound": "Nc1ncnc2c1ncn2[C@@H]1O[C@H](COP(=O)(O)OS(=O)(=O)O)[C@@H](OP(=O)(O)O)[C@H]1O", "note": "[3'-phosphoadenosine-5'-phosphosulfate]", "values": [{"measurement": "utilization as a sulfate donor", "setting": "[5]; in words", "value": "does not utilize"}, {"measurement": "Activity (%) as sulfate donor", "setting": "[5]", "value": 0, "unit": "%"}]}
{"compound": "hirudin (54-65) (GDFEEIPEEYLQ) [Gly-Asp-Phe-Glu-Glu-lle-Pro-Glu-Glu-Tyr-Leu-Gin]", "values": [{"measurement": "Yield (%) of sulfated tyrosylpeptide", "setting": "[1]; [8]", "value": 7.7, "unit": "%"}]}
{"compound": "CC(C)C[C@H](NC(=O)[C@H](Cc1ccccc1)NC(=O)CNC(=O)CNC(=O)[C@@H](N)Cc1ccc(O)cc1)C(=O)O", "note": "[leu enkephalin]", "values": [{"measurement": "Yield (%) of sulfated tyrosylpeptide", "setting": "[1]; [8]", "value": 92.5, "unit": "%"}]}
{"compound": "C[C@@H](NC(=O)[C@@H](N)Cc1ccc(O)cc1)C(=O)N[C@@H](Cc1ccccc1)C(=O)NCC(=O)N[C@@H](Cc1ccc(O)cc1)C(=O)N1CCC[C@H]1C(=O)N[C@@H](CO)C(N)=O", "note": "[dermorphin]", "values": [{"measurement": "Yield (%) of sulfated tyrosylpeptide", "setting": "[1]; [8]", "value": 67.0, "unit": "%"}]}
{"compound": "COC(=O)c1ccc(O)cc1", "note": "[methyl p-hydroxybenzoate]", "values": [{"measurement": "Activity (%) as sulfate acceptor", "setting": "[1]", "value": 65}]}
